Source: the supplement of paper PMC10307832

How the values were obtained:
Assay in all cases: relative viability (nuclei count vs DMSO), 5 days (fraction); higher = more cells survive
[1] = compound: COc1cccc2cc(-c3nc([C@H]4CC[C@H](C(=O)O)CC4)n4ncnc(N)c34)[nH]c12 [OSI-027] + CS(=O)(=O)CCNCc1ccc(-c2ccc3ncnc(Nc4ccc(OCc5cccc(F)c5)c(Cl)c4)c3c2)o1 [Lapatinib] (partner 2 µM)
Summary of the method: (§1)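 Lung cancer cell lines were pin-tool dosed in 1536-well plates on the day after seeding, with either a lone drug or a fixed anchor-drug dose plus five library-drug doses (not always all listed) in √10 steps. Nuclei were counted on 4× images after 5 days. Relative viability is the ratio of treated-well to vehicle-well nuclei counts, with each value a median of duplicate plates.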

[2] = compound: CCCS(=O)(=O)Nc1ccc(F)c(C(=O)c2c[nH]c3ncc(-c4ccc(Cl)cc4)cc23)c1F [Vemurafenib] + O=C(CCCCCCC(=O)Nc1ccccc1)NO [Vorinostat] (partner 1 µM)
Summary of the method: as §1

[3] = compound: Cc1nc(NC(=O)N2CCC[C@H]2C(N)=O)sc1-c1ccnc(C(C)(C)C(F)(F)F)c1 [Alpelisib] + Cc1cc(Nc2cc(N3CCN(C)CC3)nc(Sc3ccc(NC(=O)C4CC4)cc3)n2)n[nH]1 [Tozasertib] (partner 0.1 µM)
Summary of the method: as §1

[4] = compound: CCCS(=O)(=O)Nc1ccc(F)c(C(=O)c2c[nH]c3ncc(-c4ccc(Cl)cc4)cc23)c1F [Vemurafenib] + CC(C)C[C@H](NC(=O)[C@H](Cc1ccccc1)NC(=O)c1cnccn1)B(O)O [Bortezomib] (partner 0.002 µM)
Summary of the method: as §1

Cell Line | relative viability ([1]; first compound 0.01 µM) | relative viability ([1]; first compound 0.03162 µM) | relative viability ([1]; first compound 0.1 µM) | relative viability ([1]; first compound 0.3162 µM) | relative viability ([1]; first compound 1 µM) | relative viability ([2]; first compound 0.03162 µM) | relative viability ([2]; first compound 0.1 µM) | relative viability ([2]; first compound 1 µM) | relative viability ([3]; first compound 0.04 µM) | relative viability ([3]; first compound 0.1265 µM) | relative viability ([3]; first compound 0.4 µM) | relative viability ([3]; first compound 1.265 µM) | relative viability ([3]; first compound 4 µM) | relative viability ([4]; first compound 0.03162 µM) | relative viability ([4]; first compound 0.1 µM) | relative viability ([4]; first compound 0.3162 µM) | relative viability ([4]; first compound 1 µM) | relative viability ([2]; first compound 0.3162 µM)
A-427 | 1.04 | 1.16 | 0.927 | 0.768 | 0.661 | 0.807 | 0.819 | 0.875 | 0.225 | 0.196 | 0.244 | 0.198 | 0.194 | 0.885 | 0.998 | 0.962 | 1.03 | –
NCI-H2023 | 0.735 | 0.663 | 0.567 | 0.393 | 0.18 | 0.531 | 0.662 | 0.584 | 0.36 | 0.35 | 0.348 | 0.215 | 0.166 | 0.869 | 0.948 | 0.859 | 0.943 | 0.57
NCI-H2347 | 0.983 | 0.921 | 0.885 | 0.806 | 0.516 | 0.542 | 0.539 | 0.624 | 0.649 | 0.582 | 0.682 | 0.39 | 0.361 | 0.737 | 0.79 | 0.712 | 1.02 | 0.52
NCI-H1975 | 0.897 | 0.864 | 0.958 | 0.688 | 0.401 | 0.715 | 0.661 | 0.726 | 0.726 | 0.655 | 0.755 | 0.542 | 0.29 | 0.361 | 0.313 | 0.24 | 0.385 | 0.602
HCC-15 | 0.872 | 0.849 | 0.819 | 0.763 | 0.529 | 0.775 | 0.8 | 0.805 | 0.352 | 0.373 | 0.487 | 0.336 | 0.263 | 0.958 | 1.01 | 0.848 | 0.844 | 0.899
COR-L23 | 0.887 | 1.2 | 0.744 | 1 | 0.34 | 0.443 | 0.412 | 0.441 | 0.205 | 0.208 | 0.218 | 0.19 | 0.13 | 0.925 | 0.941 | 0.832 | 0.912 | 0.373
NCI-H23 | 1.07 | 1.13 | 1.06 | 0.618 | 0.291 | 0.53 | 0.588 | 0.402 | 0.39 | 0.428 | 0.459 | 0.302 | 0.255 | 1 | 1.01 | 1.15 | 1.29 | 0.561
NCI-H1650 | 0.76 | 0.725 | 0.643 | 0.646 | 0.392 | 0.466 | 0.477 | 0.485 | 0.464 | 0.287 | 0.375 | 0.332 | 0.36 | 0.223 | – | 0.208 | 0.217 | 0.682
NCI-H1734 | 1.03 | 1.12 | 0.935 | 0.781 | 0.489 | 0.809 | 0.783 | 0.702 | 0.289 | – | 0.299 | 0.224 | 0.205 | 0.855 | 1.01 | 0.709 | 0.815 | 0.759
HCC-366 | 1.25 | 1.1 | 1.16 | 0.764 | 0.148 | 0.271 | 0.38 | 0.306 | 0.151 | 0.117 | 0.13 | 0.0701 | 0.0516 | 1 | 1.05 | – | 1.06 | –
LXF-289 | 0.99 | 0.885 | 0.926 | 0.9 | 0.74 | 0.708 | 0.656 | 0.789 | 0.21 | 0.182 | 0.249 | 0.134 | 0.128 | 1.01 | 0.953 | 0.966 | 1.1 | 0.805
NCI-H838 | 0.937 | 0.975 | 0.868 | 0.584 | 0.377 | 0.683 | 0.726 | 0.844 | 0.279 | 0.25 | 0.277 | 0.215 | 0.247 | 0.707 | 0.723 | – | 1.15 | 0.6
NCI-H1993 | 0.786 | 0.808 | 0.773 | 0.785 | 0.693 | 0.739 | – | 0.876 | 0.621 | 0.505 | 0.542 | 0.511 | 0.515 | 1.02 | – | 1.25 | 1.03 | 1.02
NCI-H1437 | 0.807 | 0.756 | 0.807 | 0.69 | 0.312 | 0.798 | 0.825 | 0.945 | 0.41 | 0.394 | 0.417 | 0.336 | 0.306 | 0.439 | 0.411 | 0.622 | 0.541 | 0.873
NCI-H647 | 1.11 | 1.02 | 1.17 | 0.843 | 0.443 | 0.411 | 0.643 | 0.442 | 0.416 | 0.322 | 0.419 | 0.102 | 0.26 | 0.881 | 0.96 | 0.739 | 0.874 | 0.6
HCC-78 | 0.6 | 0.77 | 0.472 | 0.787 | 0.518 | 0.425 | 0.351 | 0.4 | 0.411 | 0.318 | 0.504 | 0.401 | 0.292 | 0.433 | 0.439 | 0.674 | 0.506 | 0.79
ABC-1 | 1.33 | 0.991 | 1.04 | 0.97 | 0.553 | 1.06 | 0.972 | 1.45 | 0.175 | 0.157 | 0.155 | 0.195 | 0.188 | 0.268 | 0.302 | 0.267 | 0.287 | 0.831
